Measured values: patent US20160060260A1, “BROMODOMAIN INHIBITORS FOR TREATING DISEASE” (Board of Regents, The University of Texas System, priority 2014, published 2016)

These compounds were tested against T1, Recombinant human His-tagged Trim24-PHD-bromodomain (Homo sapiens, UniProt O15164) (assay: Trim24 AlphaScreen Assay). Details: 5 nM Trim24 protein, 15 nM biotinylated H3K23ac (1-33aa) peptide.
T1 construct: Recombinant human His-tagged Trim24-PHD-bromodomain (produced in-house); made in house
T1 sequence (O15164 824-1006 limits assumed): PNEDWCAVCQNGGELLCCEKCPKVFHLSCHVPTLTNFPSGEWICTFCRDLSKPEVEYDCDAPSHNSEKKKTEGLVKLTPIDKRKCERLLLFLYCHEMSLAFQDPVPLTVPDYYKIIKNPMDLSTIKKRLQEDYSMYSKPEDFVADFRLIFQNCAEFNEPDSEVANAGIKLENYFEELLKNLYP
Assay type: binding
How it was run: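 AlphaScreen read-out after 2 h with streptavidin donor and Ni-chelate acceptor beads at 10 ug/mL each, following 1 h room-temperature incubation of compound, His-tagged PHD-bromodomain protein and biotin-H3K23ac (1-33aa) peptide in Hepes pH 7.5 buffer with NaCl and Triton X-100. Signals normalised between no-compound and no-protein wells; IC50 from four-parameter logistic curves.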

| SMILES | IC50 [nM] |
| --- | --- |
| CCCOc1cc(OCCCCN2CCOCC2)cc(Oc2cc3c(cc2NS(=O)(=O)c2ccc(OC)c(OC)c2)n(C)c(=O)n3C)c1 [Example 246, N-(1,3-dimethyl-6-(3-(4-morpholinobutoxy)-5-propoxyphenoxy)-2-oxo-2,3-dihydro-1H-benzo[d]imidazol-5-yl)-3,4-dimethoxybenzenesulfonamide 2,2,2-trifluoroacetate] | 10 to 100 |
| Cn1cnc(S(=O)(=O)Nc2cc3c(cc2Oc2cccc(OCC(C)(C)O)c2)n(C)c(=O)n3C)c1 [Example 238, N-{6-[3-(2-hydroxy-2-methylpropoxy)phenoxy]-1,3-dimethyl-2-oxo-2,3-dihydro-1H-1,3-benzodiazol-5-yl}-1-methyl-1H-imidazole-4-sulfonamide] | 100 to 1000 |
| CCCCOc1cccc(Oc2cc3c(cc2NS(=O)(=O)c2cn(C)c(C)n2)n(C)c(=O)n3C)c1 [Example 57, N-(6-(3-butoxyphenoxy)-1,3-dimethyl-2-oxo-2,3-dihydro-1H-benzo[d]imidazol-5-yl)-1,2-dimethyl-1H-imidazole-4-sulfonamide] | 100 to 1000 |
| COc1cc(OCC(C)C)cc(Oc2cc3c(cc2NS(=O)(=O)C2CC2)n(C)c(=O)n3C)c1 [Example 69, N-(6-(3-isobutoxy-5-methoxyphenoxy)-1,3-dimethyl-2-oxo-2,3-dihydro-1H-benzo[d]imidazol-5-yl)cyclopropanesulfonamide] | 10 to 100 |
| Cn1c(=O)n(C)c2cc(Oc3cccc(OCc4ccccc4)c3)c(NS(=O)(=O)CCO)cc21 [Example 81, N-(6-(3-(benzyloxy)phenoxy)-1,3-dimethyl-2-oxo-2,3-dihydro-1H-benzo[d]imidazol-5-yl)-2-hydroxyethane-1-sulfonamide] | > 1000 |
| CCCOc1cc(OCCCCN2CCC2)cc(Oc2cc3c(cc2NS(=O)(=O)c2ccc(OC)c(OC)c2)n(C)c(=O)n3C)c1 [Example 251, N-(6-{3-[4-(azetidin-1-yl)butoxy]-5-propoxyphenoxy}-1,3-dimethyl-2-oxo-2,3-dihydro-1H-1,3-benzodiazol-5-yl)-3,4-dimethoxybenzene-1-sulfonamide] | 1 to 10 |
| COCCCOc1cc(OCCCOC)cc(Oc2cc3c(cc2NS(=O)(=O)c2cn(C)c(C)n2)n(C)c(=O)n3C)c1 [Example 123, N-(6-(3,5-bis(3-methoxypropoxy)phenoxy)-1,3-dimethyl-2-oxo-2,3-dihydro-1H-benzo[d]imidazol-5-yl)-1,2-dimethyl-1H-imidazole-4-sulfonamide] | 10 to 100 |
| COc1ccc(S(=O)(=O)Nc2cc3c(cc2Oc2cccc(OCCCCCCN)c2)n(C)c(=O)n3C)cc1OC [Example 145, N-(6-(3-((6-aminohexyl)oxy)phenoxy)-1,3-dimethyl-2-oxo-2,3-dihydro-1H-benzo[d]imidazol-5-yl)-3,4-dimethoxybenzenesulfonamide] | 10 to 100 |
| CC(C)COc1cccc(Oc2cc3c(cc2NS(=O)(=O)c2cnn(C)c2)n(C)c(=O)n3C)c1 [Example 60, N-(6-(3-isobutoxyphenoxy)-1,3-dimethyl-2-oxo-2,3-dihydro-1H-benzo[d]imidazol-5-yl)-1-methyl-1H-pyrazole-4-sulfonamide] | 10 to 100 |
| Cc1c(S(=O)(=O)Nc2cc3c(cc2Oc2cccc(OCc4ccccc4)c2)n(C)c(=O)n3C)cnn1C [Example 41, N-(6-(3-(benzyloxy)phenoxy)-1,3-dimethyl-2-oxo-2,3-dihydro-1H-benzo[d]imidazol-5-yl)-1,5-dimethyl-1H-pyrazole-4-sulfonamide] | 100 to 1000 |
| Cc1nn(C)cc1S(=O)(=O)Nc1cc2c(cc1Oc1cccc(OCc3ccccc3)c1)n(C)c(=O)n2C [Example 23, N-(6-(3-(benzyloxy)phenoxy)-1,3-dimethyl-2-oxo-2,3-dihydro-1H-benzo[d]imidazol-5-yl)-1,3-dimethyl-1H-pyrazole-4-sulfonamide] | 100 to 1000 |
| CCCOc1cc(OCCCCCCN)cc(Oc2cc3c(cc2NS(=O)(=O)c2ccccn2)n(C)c(=O)n3C)c1 [Example 187, N-(6-(3-((6-aminohexyl)oxy)-5-propoxyphenoxy)-1,3-dimethyl-2-oxo-2,3-dihydro-1H-benzo[d]imidazol-5-yl)pyridine-2-sulfonamide] | 10 to 100 |
| CCCOc1cc(OCCCCN(C)C)cc(Oc2cc3c(cc2NS(=O)(=O)c2cccc(C(=O)O)c2)n(C)c(=O)n3C)c1 [Example 253, 3-(N-(6-(3-(4-(dimethylamino)butoxy)-5-propoxyphenoxy)-1,3-dimethyl-2-oxo-2,3-dihydro-1H-benzo[d]imidazol-5-yl)sulfamoyl)benzoic acid] | 10 to 100 |
| CCCOc1cccc(Oc2cc3c(cc2NS(=O)(=O)c2cc(OC)cc(OC)c2)n(C)c(=O)n3C)c1 [Example 169, N-(1,3-dimethyl-2-oxo-6-(3-propoxyphenoxy)-2,3-dihydro-1H-benzo[d]imidazol-5-yl)-3,5-dimethoxybenzenesulfonamide] | 100 to 1000 |
| CC(COC(=O)CNC(=O)OC(C)(C)C)COc1cccc(Oc2cc3c(cc2NS(=O)(=O)c2cn(C)cn2)n(C)c(=O)n3C)c1 (centres unmarked) [Example 239, 3-(3-{[1,3-dimethyl-6-(1-methyl-1H-imidazole-4-sulfonamido)-2-oxo-2,3-dihydro-1H-1,3-benzodiazol-5-yl]oxy}phenoxy)-2-methylpropyl 2-{[(tert-butoxy)carbonyl]amino}acetate] | 100 to 1000 |

Continued, values first:

| IC50 [nM] | SMILES |
| --- | --- |
| 10 to 100 | CCCOc1cc(C#N)cc(Oc2cc3c(cc2NS(=O)(=O)c2cn(C)c(C)n2)n(C)c(=O)n3C)c1 [Example 107, N-(6-(3-cyano-5-propoxyphenoxy)-1,3-dimethyl-2-oxo-2,3-dihydro-1H-benzo[d]imidazol-5-yl)-1,2-dimethyl-1H-imidazole-4-sulfonamide] |
| 10 to 100 | CCCOc1cc(Oc2cc3c(cc2NS(=O)(=O)c2cn(C)cn2)n(C)c(=O)n3C)ccc1F [Example 105, N-(6-(4-fluoro-3-propoxyphenoxy)-1,3-dimethyl-2-oxo-2,3-dihydro-1H-benzo[d]imidazol-5-yl)-1-methyl-1H-imidazole-4-sulfonamide] |
| 10 to 100 | CCCOc1cccc(Oc2cc3c(cc2NS(=O)(=O)c2cnn(C)c2)n(C)c(=O)n3C)c1 [Example 75, N-(1,3-dimethyl-2-oxo-6-(3-propoxyphenoxy)-2,3-dihydro-1H-benzo[d]imidazol-5-yl)-1-methyl-1H-pyrazole-4-sulfonamide] |
| > 1000 | COCCS(=O)(=O)Nc1cc2c(cc1Oc1cccc(OCc3ccccc3)c1)n(C)c(=O)n2C [Example 27, N-(6-(3-(benzyloxy)phenoxy)-1,3-dimethyl-2-oxo-2,3-dihydro-1H-benzo[d]imidazol-5-yl)-2-methoxyethane-1-sulfonamide] |
| 100 to 1000 | CCCOc1ccc(OC)c(Oc2cc3c(cc2NS(=O)(=O)c2cn(C)cn2)n(C)c(=O)n3C)c1 [Example 113, N-(6-(2-methoxy-5-propoxyphenoxy)-1,3-dimethyl-2-oxo-2,3-dihydro-1H-benzo[d]imidazol-5-yl)-1-methyl-1H-imidazole-4-sulfonamide] |
| 100 to 1000 | Cn1c(=O)n(C)c2cc(Oc3cccc(OCc4ccccc4)c3)c(NS(=O)(=O)c3cccc(F)c3)cc21 [Example 43, N-(6-(3-(benzyloxy)phenoxy)-1,3-dimethyl-2-oxo-2,3-dihydro-1H-benzo[d]imidazol-5-yl)-3-fluorobenzenesulfonamide] |
| > 1000 | Cc1ccccc1S(=O)(=O)Nc1cc2c(cc1Oc1cccc(OCc3ccccc3)c1)n(C)c(=O)n2C [Example 35, N-(6-(3-(benzyloxy)phenoxy)-1,3-dimethyl-2-oxo-2,3-dihydro-1H-benzo[d]imidazol-5-yl)-2-methylbenzenesulfonamide] |
| 10 to 100 | CCCOc1cc(OCCCOC)cc(Oc2cc3c(cc2NS(=O)(=O)c2cnn(CC)c2)n(C)c(=O)n3C)c1 [Example 207, 1-ethyl-N-(6-(3-(3-methoxypropoxy)-5-propoxyphenoxy)-1,3-dimethyl-2-oxo-2,3-dihydro-1H-benzo[d]imidazol-5-yl)-1H-pyrazole-4-sulfonamide] |
| 100 to 1000 | CCCOc1cc(OCCCOC)cc(Oc2cc3c(cc2NS(=O)(=O)c2ccc4c(c2)COC4)n(C)c(=O)n3C)c1 [Example 162, N-(6-(3-(3-methoxypropoxy)-5-propoxyphenoxy)-1,3-dimethyl-2-oxo-2,3-dihydro-1H-benzo[d]imidazol-5-yl)-1,3-dihydroisobenzofuran-5-sulfonamide] |
| > 1000 | Cc1ccsc1S(=O)(=O)Nc1cc2c(cc1Oc1cccc(OCc3ccccc3)c1)n(C)c(=O)n2C [Example 24, N-(6-(3-(benzyloxy)phenoxy)-1,3-dimethyl-2-oxo-2,3-dihydro-1H-benzo[d]imidazol-5-yl)-3-methylthiophene-2-sulfonamide] |
| 100 to 1000 | C=CCOc1cccc(Oc2cc3c(cc2NS(=O)(=O)c2cccc4ccccc24)n(C)c(=O)n3C)c1 [Example 142, N-(6-(3-(allyloxy)phenoxy)-1,3-dimethyl-2-oxo-2,3-dihydro-1H-benzo[d]imidazol-5-yl)naphthalene-1-sulfonamide] |
| 100 to 1000 | CCOc1cccc(Oc2cc3c(cc2NS(=O)(=O)c2cn(C)c(C)n2)n(C)c(=O)n3C)c1 [Example 6, N-(6-(3-ethoxyphenoxy)-1,3-dimethyl-2-oxo-2,3-dihydro-1H-benzo[d]imidazol-5-yl)-1,2-dimethyl-1H-imidazole-4-sulfonamide] |
| > 1000 | CCc1cccc(S(=O)(=O)Nc2cc3c(cc2Oc2cccc(OCc4ccccc4)c2)n(C)c(=O)n3C)c1 [Example 33, N-(6-(3-(benzyloxy)phenoxy)-1,3-dimethyl-2-oxo-2,3-dihydro-1H-benzo[d]imidazol-5-yl)-3-ethylbenzenesulfonamide] |
| 10 to 100 | Cn1cc(S(=O)(=O)Nc2cc3c(cc2Oc2cccc(OCC4CC4)c2)n(C)c(=O)n3C)cn1 [Example 101, N-(6-(3-(cyclopropylmethoxy)phenoxy)-1,3-dimethyl-2-oxo-2,3-dihydro-1H-benzo[d]imidazol-5-yl)-1-methyl-1H-pyrazole-4-sulfonamide] |
